Reference: patent US20060073589A1, “Rapid generation of activated mononuclear antigen presenting cells from monocytes” (priority 2002, published 2006)
*1 amine or outer side, *2 acyl side, *3 side chain or, on linkers, in order; H or OH if unused. Where a SMILES comes first, the peptide text is derived from it. Bridges are numbered along the chain shown (N, C = ends). Roman numbers before positions name the chains, in order. [ ]: non-standard residue; d: D form. Actinocin(9to1) = Cc1c2oc3c(C)ccc(C(=O)[*:1])c3nc-2c(C(=O)[*:2])c(N)c1=O; NMeV = CN[C@H](C(=O)O)C(C)C; Sar = CNCC(=O)O

Tested on: CD83 expression on the cell membrane of monocytes
Assay: CD83 surface expression on monocytes cultured with metabolic inhibitors
Format: cell-based, human
Conditions: 4 h monocyte culture, inhibitor added at beginning; actinomycin D 100 ng/ml, cyclohexamide 100 μM, brefeldin A 5 μg/ml
Description: The dotted line indicates the FACS profile of cells stained with isotype control mAb. The data are representative of three independent experiments.
Cells were washed and resuspended in PBS containing 1% human serum and incubated with fluorochrome-conjugated mAbs for 30 min at 4° C. The following mAbs were used for immunofluorescent staining: anti-CD14, CD80, CD4, CD25, CD54, HLA-DR (Becton Dickinson, San Jose Calif.), CD40, CD86, CD83, CD1a, CD62L, HLA A-B-C, ManR, CD58, LFA-1, CD32 (Pharmingen, San Diego, Calif.), CD2 (clone SFCI3Pt2H9; Beckman Coulter, Fullerton, Calif.), CD33 (Immunotech). Samples were collected and analysed by using a FACSort (Becton Dickinson) and data analysis was performed by CellQuest software (Becton Dickinson). Cells were electronically gated according to light scatter properties, in order to exclude cell debris and contaminating lymphocytes.
The CD83 surface expression in cells cultured in the presence of various metabolic inhibitors added at the beginning of the culture was examined.

| Compound | inhibition of up-regulation of CD83 expression on the cell membrane |
| --- | --- |
| Cc1c2oc3c(C)ccc(C(=O)N[C@@H]4C(=O)N[C@H](C(C)C)C(=O)N5CCC[C@H]5C(=O)N(C)CC(=O)N(C)[C@@H](C(C)C)C(=O)O[C@@H]4C)c3nc-2c(C(=O)N[C@@H]2C(=O)N[C@H](C(C)C)C(=O)N3CCC[C@H]3C(=O)N(C)CC(=O)N(C)[C@@H](C(C)C)C(=O)O[C@@H]2C)c(N)c1=O [actinomycin D] (I: T[dV]P[Sar][NMeV] / II: T[dV]P[Sar][NMeV]; ester I:1-I:C, II:1-II:C; linker I:N-II:N via Actinocin(9to1)) | not significantly inhibited |
| C[C@H]1CCC/C=C/[C@@H]2C[C@H](O)C[C@H]2[C@H](O)/C=C/C(=O)O1 [brefeldin A] | completely blocked |
| C[C@@H]1C[C@@H]([C@H](O)CC2CC(=O)NC(=O)C2)C(=O)[C@@H](C)C1 [cyclohexamide] | completely blocked |
